Molecular target: cloned human glucagon receptor (Homo sapiens, UniProt P47871)
Test: Glucagon Receptor (hGlucR) Binding Assay
Description: This plasmid DNA is transfected into 293 HEK cells and selected with 200 μg/mL Hygromycin.
Crude plasma membranes are prepared using cells from suspension culture. The cells are lysed on ice in hypotonic buffer containing 25 mM Tris HCL, pH 7.5, 1 mM MgCl2, DNAsel, 20 u/mL, and Roche Complete Inhibitors-without EDTA. The cell suspension is homogenized with a glass dounce homogenizer using a Teflon pestle for 25 strokes. The homogenate is centrifuged at 4 degrees C. at 1800×g for 15 mins. The supernate is collected and the pellet is resuspended in hypotonic buffer and rehomogenized. The mixture is centrifuged at 1800×g for 15 mins. The second supernate is combined with the first supernate. The combined supernates are recentrifuged at 1800×g for 15 mins to clarify. The clarified supernate is transferred to high speed tubes and centrifuged at 25000×g for 30 minutes at 4 degrees C. The membrane pellet is resuspended in homogenization buffer and stored as frozen aliquots at −80 degree C. freezer until needed.
The specific activity is 2200 Ci/mmol.
The binding buffer contains 25 mM Hepes, pH 7.4, 2.5 mM CaCl2, 1 mM MgCl2, 0.1% fatty acid free BSA, (ICN), 0.003% tween-20, and Roche Complete Inhibitors without EDTA. […] Test compounds are dissolved in DMSO and serially diluted in DMSO. […] Plates are read with a MicroBeta after 14 hours of settling time at room temp.

Sequence of cloned human glucagon receptor (P47871 26-477): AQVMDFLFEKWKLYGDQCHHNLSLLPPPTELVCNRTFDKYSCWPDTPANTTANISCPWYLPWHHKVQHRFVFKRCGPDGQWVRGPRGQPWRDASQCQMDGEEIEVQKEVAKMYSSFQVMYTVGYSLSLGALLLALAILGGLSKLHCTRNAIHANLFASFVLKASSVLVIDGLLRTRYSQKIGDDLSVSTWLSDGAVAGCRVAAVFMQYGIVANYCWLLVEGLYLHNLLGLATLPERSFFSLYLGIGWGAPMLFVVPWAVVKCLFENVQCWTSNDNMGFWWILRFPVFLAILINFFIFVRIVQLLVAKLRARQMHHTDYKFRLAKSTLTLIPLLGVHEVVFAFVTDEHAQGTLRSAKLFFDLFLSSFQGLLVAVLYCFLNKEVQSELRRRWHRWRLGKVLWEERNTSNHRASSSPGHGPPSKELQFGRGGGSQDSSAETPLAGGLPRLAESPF

| Ki | Structure (SMILES) |
| --- | --- |
| 0.087 µM | C=CCC(CC=C)(COc1cc(C)c(-c2ccc(C(F)(F)F)cc2)c(C)c1)c1ccc(C(=O)NCCC(=O)O)cc1 |
| 0.061 µM | Cc1cc(OCC(c2ccc(C(=O)NCCC(=O)O)cc2)C(C)C)cc(C)c1-c1ccc(C(C)(C)C)cc1 (centres unmarked) |

From patent publication US8076374B2 (Eli Lilly and Company, priority 2005, dated 2011)
